Measured values taken from patent US20250275948A1, “(N-[4-(2,3-DIHYDRO-1H-INDEN-5-YL)-1,3-THIAZOL-2-YL]-2-[4-METHYL-4-(NAPHTHALEN-2-YL)-2,5-DIOXOIMIDAZOLIDIN-1-YL]ACETAMIDE AS STABILIZER OF CLOCK:BMAL1 INTERACTION FOR THE TREATMENT OF CIRCADIAN RHYTHM DISEASES AND DISORDERS” (KOC UNIVERSITESI, priority 2022, published 2025).

Tests used:
CLOCK and BMAL1 = assay: Subcellular fractionation of U2OS Bmal1-dLuc cells; format: cell-based, human; conditions: unsynchronized U2OS Bmal1-dLuc cells, 5 μM, 24 hours
Protocol: Subcellular fractionation was performed to explore if CLK95 effects the subcellular localization of core-clock proteins. U2OS Bmal1-dLuc cells were plated with a density of 40×10^4 cell/well in 6 well plate, a day prior to small molecule treatment. Following, cells were treated with either DMSO (0.25%) or 5 μM CLK95. 24 hours after small molecule treatment, cells were harvested to get fractionated. Cells were harvested with 1 mL ice cold-1×PBS, and pelleted at 5000×g for 7 minutes at 4° C. After discarding supernatants, cells were resuspended with 200 μL Cytosolic Lysis Buffer (CLB) (10 mM HEPES pH 7.9, 10 mM KCl, 0.1 mM EDTA pH 8.0, 0.05% NP-40, 1×PIC) and incubated on ice for 10 minutes. Then, samples were centrifuged at 660×g for 5 minutes (4° C.). While supernatants were transferred to new centrifuge tubes as cytosolic fractions, pellets were washed with 200 μL CLB buffer for 3 times. At the end of each wash, samples were centrifugated at 660×g for 5 minutes at 4° C. Next, cell pellets were resuspended in 100 μL Nuclear Lysis Buffer (NLB) (20 mM HEPES pH 7.9, 0.4M NaCl, 1 mM EDTA, 10% Glycerol, 1×PIC) and subjected to sonication (60% power, 10 seconds, 3 cycles) (BANDELIN SONOPULS HD 2070 homogeniser) for 2 times. This step was followed by centrifugation at 15000×g for 5 minutes with the cytosolic fractions. […]

CLOCK:BMAL1 interaction = assay: Co-immunoprecipitation (Co-IP) of CLOCK with FLAG-BMAL1; format: biochemical
Protocol: To investigate the binding sites of the CLK95 on CLOCK and BMAL1, promising residues which were computationally determined to interact with small molecule were mutated via site-directed mutagenesis. […] These amino acid residues were introduced to Bmal1 and CLOCK genes by PCR based mutagenesis. FLAG-tagged pcDNA4a-Bmal1 and […] were used as template DNAs. Each PCR reaction consisted of 50 ng of template DNA, 0.2 μM primer pair, 0.2 mM dNTPs and 3 units of Pfu DNA polymerase. Then the PCR reaction was performed under these conditions: 5 minutes at 98° C. followed by 12 cycles of 1 minute at 98° C., 1 minute at 55° C. and 15 minutes at 72° C. The PCR reaction completed with a final extension step at 72° C. for 15 minutes. PCR products were analysed with 0.8% of agarose. Bands at the right size were further treated with 1 μL FastDigest Dpn I (Thermo Scientific, FD1704) for 1 hour at 37° C. to digest methylated-parental DNA. Subsequently, DH5a (a strain of E. coli) cells were transformed with the 7 μL PCR product. Standard heat-shock transformation protocol was used. Transformed cells were plated on Ampicillin (100 μg/mL) containing Luria-Bertani (LB) agar plates and incubated overnight at 37° C. Later, colonies formed on the LB ager plate were selected to culture in 5 mL LB broth containing Ampicillin (100 μg/mL). After overnight incubation at 37° C., cells were harvested and plasmid isolation was performed with Macherey Nagel's NucleoSpin Plasmid (NoLid), Mini kit. Isolated plasmids were then sent for Sanger sequencing (Macrogen) to confirm desired single-site mutation.
To assess the effect CLK95 on BMAL1-CLOCK interaction Co-IP was employed. HEK 293T cell were transfected with FLAG-tagged pcDNA4a-Bmal1 or pCMV-Sport6-CLOCK plasmids. The FLAG-tagged pcDNA4a-Bmal1-R126A and pCMV-Sport6-CLOCK-F80A-K220A mutants were used in this assay. […] The protein concentration of each lysate was determined with the Pierce™ 660 nm Protein assay (Thermo Scientific, 22660). […]

For `CC1(c2ccc3ccccc3c2)NC(=O)N(CC(=O)Nc2nc(-c3ccc4c(c3)CCC4)cs2)C1=O` (stereo not shown) [CLK95], the “nuclear localization of CLOCK and BMAL1” value (CLOCK and BMAL1) was “increasing the nuclear localization of CLOCK and BMAL1”, the “stability of CLOCK-BMAL1” value (CLOCK:BMAL1 interaction) was “increasing the stability of CLOCK-BMAL1” and the “interaction between CLOCK and BMAL1” value (CLOCK:BMAL1 interaction; Co-IP, HEK 293T lysates) was “increasing the interaction between CLOCK and BMAL1”. The “residue needed for binding to CLOCK:BMAL1 complex” value (CLOCK:BMAL1 interaction; R126A mutant Co-IP) was “Arg126 of BMAL1 is essential”.
